Consider five compounds from US7074823B2, “Fluorescent probe for zinc” (Daiichi Pure Chemical Co., Ltd., priority 2000, dated 2006).

For series [1] the following is noted: conventional probes, short wavelength excitation light; cited from earlier work.
Series [2] is described as follows: Changes with time in fluorescence intensity after addition of zinc ion. The settings on record: 5 μM compound, zinc ion 5 μM or 50 μM, 100 mM HEPES pH 7.5. The method, then:
Zinc ion (final concentration 5 μM or 50 μM) was added in 100 mM HEPES (pH 7.5) containing 5 μM Compound 6, Compound 12, or ACF-1 (a compound having a cyclic polyamine moiety described as Compound (20) in Example 1 in Japanese Patent Application No. (Hei) 11-40325) to measure fluorescence intensity. The fluorescence intensity was measured at the excitation wavelength of 491 nm and the fluorescence wavelength of 513 nm for Compound 6, the excitation wavelength of 492 nm and the fluorescence wavelength of 514 nm for Compound 12, and the excitation wavelength of 495 nm and the fluorescence wavelength of 515 nm for ACF-1. In the figure, the ordinate axis represents relative fluorescence intensity. […] Accordingly, the use of the compound according to the present invention enables very quick detection of zinc, and also enables the detection of rapid change in the concentration of zinc.

A short description of series [3]: Selectivity for zinc ions: fluorescence intensity in buffer containing various metal ions. The following applies: 1 μM compound. Here is the method: Compound 6 obtained in Example 1 and Compound 12 obtained in Example 2 were used to evaluate selectivity for zinc ions. 5 μM of Compound 6 or Compound 12 was added in 100 mM HEPES buffer (pH 7.5) containing various metal ions (5 μM or 5 mM). The fluorescence intensity was measured at the excitation wavelength of 491 nm and the fluorescence wavelength of 513 nm for Compound 6, and the excitation wavelength of 492 nm and the fluorescence wavelength of 514 nm for Compound 12. The results are shown in FIG. 1 (Compound 6) and FIG. 2 (Compound 12). 1 μM of Compound 21 was added in 100 mM HEPES buffer (pH 7.5) containing various metal ions (1 μM or 5 mM), and the fluorescence intensity was measured at the excitation wavelength of 505 nm and the fluorescence wavelength of 522 nm.
In the figures, the fluorescence intensities on the ordinate axis are shown as numerical values with addition of each metal ion relative to the fluorescence intensity without addition of metal ion which is taken as 1.

A short description of series [4]: Changes in fluorescence intensity with relation to pH changes. In kind it is physicochemical. The settings on record: pH of around 7.4 (intracellular pH). The method, then:
Changes in fluorescence intensity of Compound 12, Compound 21, and zinc complexes thereof were investigated with relation to pH changes. The fluorescence intensity was measured at the excitation wavelength of 492 nm and the fluorescence wavelength of 514 nm for Compound 12, and the excitation wavelength of 505 nm and the fluorescence wavelength of 522 nm for Compound 21.
Buffers used are as follows.
100 mM Cl2CHCOOH—Cl2CHCOONa buffer (pH 2.0)
100 mM ClCH2COOH—ClCH2COONa buffer (pH 3.0)
100 mM CHES buffer (pH 8.5)

For `CCOC(=O)COc1cc(NS(=O)(=O)c2ccc(C)cc2)c2nc(C)ccc2c1` [Zinquin], the excitation wavelength in series [1] is reported as 368 nm.

Regarding `CN1CCN(C)CCN(c2ccc(-c3c4ccc(=O)cc-4oc4cc(O)ccc34)cc2)CCN(C)CC1` [ACF-1], in series [2], the “increase of fluorescence intensity with time after zinc ion addition” value is given as “not instantly increased”.

On to `CN(C)c1cccc2c(S(=O)(=O)NCCN3CCNCCNCCNCC3)cccc12` [Dansylaminoethylcyclen], for which the excitation wavelength in series [1] was 323 nm.

Consider `COc1cc(NS(=O)(=O)c2ccc(C)cc2)c2ncccc2c1` [TSQ], for which the excitation wavelength in series [1] was 367 nm.

For the compound `O=C1C=C2Oc3cc(O)c(Cl)cc3C(c3ccc(NCCN(Cc4ccccn4)Cc4ccccn4)cc3C(=O)O)C2C=C1Cl` (centres unmarked) [Compound 21], the selectivity for zinc entry in series [3] (100 mM HEPES buffer pH 7.5, various metal ions 1 μM or 5 mM) is “high selectivity”. The “effect of sodium, potassium, calcium, magnesium on the increase in fluorescence intensity caused by zinc” value in series [3] (HEPES pH 7.5) is recorded as “did not affect”. The “increase in fluorescence intensity on addition of sodium, potassium, calcium and magnesium” value in series [3] (metal ions at high concentration (5 mM), HEPES pH 7.5) is on record as “almost no increase”. The “stability of fluorescence intensity to pH changes” value in series [4] is “more stable than Compound 12”.
